Assay results from the NIST ThermoML archive (doi:10.1021/je020125e).
“And” between values parts separate entries of the source, which are not always exact repeats. Identical values can stand only once.

Conditions: 101.33 kPa, Liquid, Hot wire method

CCC(C)C(C)C (stereo unspecified) [2,3-dimethylpentane]
Conditions	thermal conductivity	thermal diffusivity
256.3 K	0.1178 W/m/K	–
256.7 K	0.1175 W/m/K	–
256.93 K	–	8.19e-08 m2/s
256.95 K	0.1173 W/m/K	–
257.7 K	–	8.09e-08 m2/s
258.3 K	–	8.05e-08 m2/s
269.57 K	0.114 W/m/K	–
269.87 K	0.1137 W/m/K	–
270.12 K	0.1135 W/m/K	–
270.24 K	–	7.8e-08 m2/s
270.9 K	–	7.79e-08 m2/s
271.49 K	–	7.72e-08 m2/s
284.74 K	0.1097 W/m/K	–
285.02 K	0.1093 W/m/K	–
285.27 K	0.1092 W/m/K	–
285.38 K	–	7.51e-08 m2/s
286.04 K	–	7.37e-08 m2/s
286.63 K	–	7.35e-08 m2/s
296.31 K	0.1057 W/m/K	–
296.36 K	0.1063 W/m/K	–
296.65 K	0.106 W/m/K	–
297 K	–	7.16e-08 m2/s
297.68 K	–	7.1e-08 m2/s
298.28 K	–	7.02e-08 m2/s
311.34 K	0.1022 W/m/K	–
311.66 K	0.102 W/m/K	–
311.93 K	0.1018 W/m/K	–
311.97 K	–	6.79e-08 m2/s
312.7 K	–	6.77e-08 m2/s
313.33 K	–	6.76e-08 m2/s
321.3 K	0.09959 W/m/K	–
321.59 K	0.09937 W/m/K	–
321.85 K	0.09916 W/m/K	–
321.91 K	–	6.53e-08 m2/s
322.58 K	–	6.46e-08 m2/s
323.18 K	–	6.43e-08 m2/s
331.96 K	0.097 W/m/K	–
332.21 K	0.09651 W/m/K and 0.09662 W/m/K	–
332.5 K	–	6.07e-08 m2/s
333.06 K	–	5.99e-08 m2/s and 6e-08 m2/s
343.12 K	0.09411 W/m/K	–
343.36 K	0.09373 W/m/K	–
343.59 K	0.09353 W/m/K	–
343.64 K	–	5.78e-08 m2/s
344.2 K	–	5.72e-08 m2/s
344.73 K	–	5.72e-08 m2/s

CCCCC(C)C [2-methylhexane]
Conditions	thermal conductivity [W/m/K]	thermal diffusivity [m2/s]
256.24 K	0.1227	–
256.67 K	0.1226	–
257.02 K	0.1224	–
257.46 K	–	8.41e-08
258.65 K	–	8.33e-08
259.64 K	–	8.28e-08
275.56 K	0.1172	–
276 K	0.1168	–
276.39 K	0.1167	–
276.83 K	–	8e-08
278.06 K	–	7.86e-08
279.12 K	–	7.85e-08
296.46 K	0.1109	–
296.93 K	0.1106	–
297.4 K	0.1105	–
297.8 K	–	7.5e-08
299.08 K	–	7.43e-08
300.34 K	–	7.38e-08
317.4 K	0.1049	–
317.92 K	0.1047	–
318.35 K	0.1045	–
318.77 K	–	7.02e-08
320.16 K	–	6.96e-08
321.33 K	–	6.94e-08
337.1 K	0.09956	–
337.65 K	0.0992	–
338.11 K	0.09905	–
338.49 K	–	6.63e-08
339.91 K	–	6.52e-08
341.12 K	–	6.49e-08
